Target: T1, full-length ATR (Homo sapiens, UniProt Q13535)
T1 construct: Assays were carried out at 25° C. in the presence of 5 nM full-length ATR
Test: ATR Inhibition Assay (radioactive-phosphate incorporation)
Format: biochemical
Details: for ATR Ki: Ki(app), 5 nM full-length ATR, 10 μM [γ-33P]ATP, 800 μM target peptide, 25° C.
Protocol: Compounds were screened for their ability to inhibit ATR kinase using a radioactive-phosphate incorporation assay. Assays were carried out in a mixture of 50 mM Tris/HCl (pH 7.5), 10 mM MgCl2 and 1 mM DTT.
Assays were carried out at 25° C. in the presence of 5 nM full-length ATR. An assay stock buffer solution was prepared containing all of the reagents listed above, with the exception of ATP and the test compound of interest. […] The plate was pre-incubated for 10 minutes at 25° C. and the reaction initiated by addition of 15 μL [γ-33P]ATP (final concentration 10 μM).
The reaction was stopped after […] by the addition of 30 μL 0.1M phosphoric acid containing 2 mM ATP. A multiscreen phosphocellulose filter 96-well plate (Millipore, Cat no. MAPHN0B50) was pretreated with 100 μL 0.2M phosphoric acid prior to the addition of 45 μL of the stopped assay mixture. The plate was washed with 5×200 μL 0.2M phosphoric acid.
After removing mean background values for all of the data points, Ki(app) data were calculated from non-linear regression analysis of the initial rate data using the Prism software package (GraphPad Prism version 3.0cx for Macintosh, GraphPad Software, San Diego Calif., USA).

T1 sequence (Q13535 whole entry): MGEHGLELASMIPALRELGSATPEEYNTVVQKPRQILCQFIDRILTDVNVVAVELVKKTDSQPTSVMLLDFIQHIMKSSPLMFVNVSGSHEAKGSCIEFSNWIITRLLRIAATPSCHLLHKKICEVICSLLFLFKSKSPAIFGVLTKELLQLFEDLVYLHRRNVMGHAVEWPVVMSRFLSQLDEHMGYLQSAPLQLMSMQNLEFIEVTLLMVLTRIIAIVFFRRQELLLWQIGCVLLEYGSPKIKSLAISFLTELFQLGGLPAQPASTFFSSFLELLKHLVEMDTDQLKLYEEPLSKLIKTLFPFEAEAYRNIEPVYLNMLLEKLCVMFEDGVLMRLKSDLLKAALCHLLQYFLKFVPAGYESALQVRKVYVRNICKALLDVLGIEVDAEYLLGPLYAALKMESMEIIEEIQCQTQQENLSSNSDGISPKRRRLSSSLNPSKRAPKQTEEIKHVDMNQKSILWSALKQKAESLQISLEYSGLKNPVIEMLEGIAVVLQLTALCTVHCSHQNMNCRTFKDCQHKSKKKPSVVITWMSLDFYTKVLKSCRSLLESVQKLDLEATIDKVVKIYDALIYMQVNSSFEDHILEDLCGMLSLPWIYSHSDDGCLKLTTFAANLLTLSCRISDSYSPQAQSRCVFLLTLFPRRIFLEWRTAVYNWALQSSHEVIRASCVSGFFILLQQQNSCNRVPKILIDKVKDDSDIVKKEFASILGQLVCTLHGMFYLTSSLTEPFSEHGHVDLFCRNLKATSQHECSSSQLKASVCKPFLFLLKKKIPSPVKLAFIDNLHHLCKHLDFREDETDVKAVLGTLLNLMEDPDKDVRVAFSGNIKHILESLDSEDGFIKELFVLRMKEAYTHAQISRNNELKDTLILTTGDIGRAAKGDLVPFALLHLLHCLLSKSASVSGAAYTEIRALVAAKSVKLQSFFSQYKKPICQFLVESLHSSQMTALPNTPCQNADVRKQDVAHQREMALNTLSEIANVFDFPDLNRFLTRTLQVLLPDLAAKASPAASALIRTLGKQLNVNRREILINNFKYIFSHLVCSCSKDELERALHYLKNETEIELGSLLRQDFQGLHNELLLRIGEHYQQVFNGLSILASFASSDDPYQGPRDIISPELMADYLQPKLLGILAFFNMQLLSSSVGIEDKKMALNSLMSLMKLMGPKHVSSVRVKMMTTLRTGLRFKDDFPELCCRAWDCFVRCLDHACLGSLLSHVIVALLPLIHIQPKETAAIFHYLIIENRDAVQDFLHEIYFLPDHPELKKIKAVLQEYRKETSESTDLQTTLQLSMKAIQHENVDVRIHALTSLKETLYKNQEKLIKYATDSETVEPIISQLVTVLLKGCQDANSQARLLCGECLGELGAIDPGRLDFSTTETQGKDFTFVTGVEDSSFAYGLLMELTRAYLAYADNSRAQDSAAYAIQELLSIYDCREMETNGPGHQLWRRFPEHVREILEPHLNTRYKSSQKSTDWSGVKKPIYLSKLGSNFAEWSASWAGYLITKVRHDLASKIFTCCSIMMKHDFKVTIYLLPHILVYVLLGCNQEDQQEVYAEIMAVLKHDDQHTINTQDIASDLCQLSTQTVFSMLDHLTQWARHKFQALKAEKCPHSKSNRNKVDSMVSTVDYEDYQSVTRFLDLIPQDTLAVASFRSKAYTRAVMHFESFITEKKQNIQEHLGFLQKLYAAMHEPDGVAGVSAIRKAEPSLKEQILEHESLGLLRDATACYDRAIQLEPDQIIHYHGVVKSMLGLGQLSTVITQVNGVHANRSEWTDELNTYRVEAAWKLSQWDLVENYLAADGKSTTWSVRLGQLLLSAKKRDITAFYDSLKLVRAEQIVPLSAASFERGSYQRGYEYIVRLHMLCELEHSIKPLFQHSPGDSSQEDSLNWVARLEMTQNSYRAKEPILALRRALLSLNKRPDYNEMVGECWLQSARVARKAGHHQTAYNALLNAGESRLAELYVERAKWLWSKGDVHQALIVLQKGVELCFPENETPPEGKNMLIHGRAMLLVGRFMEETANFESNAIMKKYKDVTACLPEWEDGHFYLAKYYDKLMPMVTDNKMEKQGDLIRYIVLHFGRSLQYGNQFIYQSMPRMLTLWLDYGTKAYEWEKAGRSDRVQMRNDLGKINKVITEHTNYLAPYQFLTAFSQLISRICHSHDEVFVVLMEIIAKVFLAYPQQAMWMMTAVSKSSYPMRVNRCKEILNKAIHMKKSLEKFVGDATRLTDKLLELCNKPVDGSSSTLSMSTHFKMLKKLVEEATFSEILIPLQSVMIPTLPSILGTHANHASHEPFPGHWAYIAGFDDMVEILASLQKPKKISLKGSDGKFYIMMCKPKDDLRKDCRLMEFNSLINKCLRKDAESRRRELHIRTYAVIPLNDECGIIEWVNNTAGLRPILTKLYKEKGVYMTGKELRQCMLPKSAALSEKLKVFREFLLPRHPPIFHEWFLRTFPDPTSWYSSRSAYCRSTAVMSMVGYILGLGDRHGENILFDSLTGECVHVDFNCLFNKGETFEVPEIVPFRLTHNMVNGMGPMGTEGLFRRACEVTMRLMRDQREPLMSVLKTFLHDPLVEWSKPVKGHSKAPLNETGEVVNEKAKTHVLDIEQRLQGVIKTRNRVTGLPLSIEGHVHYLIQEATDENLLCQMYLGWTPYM

Compound | Ki [nM] | ATR Ki
C[C@H](N)c1ccc(-c2nnc(-c3nc(-c4ccnc(C5(C#N)CCC5)c4)cnc3N)o2)cc1 [Compound I-43, 1-[4-[5-amino-6-[5-[4-[(1S)-1-aminoethyl]phenyl]-1,3,4-oxadiazol-2-yl]pyrazin-2-yl]-2-pyridyl]cyclobutanecarbonitrile] | < 1 | –
C[C@H](N)c1ccc(-c2nnc(-c3nc(-c4ccnc(C(C)(C)C#N)c4)cnc3N)o2)cc1 [Compound I-44, 2-[4-[5-amino-6-[5-[4-[(1S)-1-aminoethyl]phenyl]-1,3,4-oxadiazol-2-yl]pyrazin-2-yl]-2-pyridyl]-2-methyl-propanenitrile] | < 1 | –
CC(C)(C(N)=O)c1cc(-c2cnc(N)c(-c3cc(-c4ccccc4)no3)n2)ccn1 [Compound I-45, 2-[4-[5-amino-6-(3-phenylisoxazol-5-yl)pyrazin-2-yl]-2-pyridyl]-2-methyl-propanamide] | – | +++ (Compounds with a Ki value >5 nM but ≦1 nM are marked with “+++.”)
CC(C)(C(=O)NCCO)c1cc(-c2cnc(N)c(-c3cc(-c4ccccc4)no3)n2)ccn1 [Compound I-46, 2-[4-[5-amino-6-(3-phenylisoxazol-5-yl)pyrazin-2-yl]-2-pyridyl]-N-(2-hydroxyethyl)-2-methyl-propanamide] | < 1 | –
CC(C)(C(=O)N1CCC1)c1cc(-c2cnc(N)c(-c3cc(-c4ccccc4)no3)n2)ccn1 [Compound I-47, 2-[4-[5-amino-6-(3-phenylisoxazol-5-yl)pyrazin-2-yl]-2-pyridyl]-1-(azetidin-1-yl)-2-methyl-propan-1-one] | 5 to 20 | –
CC(C)(C#N)c1cc(-c2cnc(N)c(-c3cc(-c4ccc(CNC5CC5)cc4)no3)n2)ccn1 [Compound I-48, 2-[4-[5-amino-6-[3-[4-[(cyclopropylamino)methyl]phenyl]isoxazol-5-yl]pyrazin-2-yl]-2-pyridyl]-2-methyl-propanenitrile] | < 1 | –
CNCc1ccc(-c2cc(-c3nc(-c4ccnc(C(C)C#N)c4)cnc3N)on2)cc1 (stereo not drawn) [Compound I-49, 2-[4-[5-amino-6-[3-[4-(methylaminomethyl)phenyl]isoxazol-5-yl]pyrazin-2-yl]-2-pyridyl]propanenitrile] | < 1 | –
CC(C#N)c1cc(-c2cnc(N)c(-c3cc(-c4ccccc4)no3)n2)ccn1 (stereo not drawn) [Compound I-50, 2-[4-[5-amino-6-(3-phenylisoxazol-5-yl)pyrazin-2-yl]-2-pyridyl]propanenitrile] | < 1 | –
CC(C)(C#N)c1cc(-c2cnc(N)c(-c3cc(-c4ccc(O)cc4)no3)n2)ccn1 [Compound I-51, 2-[4-[5-amino-6-[3-(4-hydroxyphenyl)isoxazol-5-yl]pyrazin-2-yl]-2-pyridyl]-2-methyl-propanenitrile] | < 1 | –
CC(C)(C#N)c1cc(-c2cnc(N)c(-c3nnc(-c4ccc5c(c4)CCNC5)o3)n2)ccn1 [Compound I-52, 2-[4-[5-amino-6-[5-(1,2,3,4-tetrahydroisoquinolin-6-yl)-1,3,4-oxadiazol-2-yl]pyrazin-2-yl]-2-pyridyl]-2-methyl-propanenitrile] | – | +++ (Compounds with a Ki value >5 nM but ≦1 nM are marked with “+++.”)
CC(C)(C#N)c1cc(-c2cnc(N)c(-c3cc(-c4ccc(CNC5CCOCC5)cc4)no3)n2)ccn1 [Compound I-53, 2-(4-(5-amino-6-(3-(4-(((tetrahydro-2H-pyran-4-yl)amino)methyl)phenyl)isoxazol-5-yl)pyrazin-2-yl)pyridin-2-yl)-2-methylpropanenitrile] | < 1 | –
CC(C)(C#N)c1cc(-c2cnc(N)c(-c3nnc(-c4ccc5c(c4)CNCC5)o3)n2)ccn1 [Compound I-55] | < 1 | –
CN(C)CCOc1ccc(-c2nnc(-c3nc(-c4ccnc(C(C)(C)C#N)c4)cnc3N)o2)cc1 [Compound I-56] | < 1 | –
CC(C)(C#N)c1cc(-c2cnc(N)c(-c3nnc(-c4ccc(CCN)cc4)o3)n2)ccn1 [Compound I-57] | < 1 | –
CC(C)(C#N)c1cc(-c2cnc(N)c(-c3nnc(-c4cccc(C5CNCCN5)c4)o3)n2)ccn1 (stereo not drawn) [Compound I-58] | 5 to 20 | –
CC(C)(C#N)c1cc(-c2cnc(N)c(-c3cc(-c4ccc(C5COCCN5)cc4)no3)n2)ccn1 (stereo not drawn) [Compound I-60] | < 1 | –
CC(C)(C#N)c1cc(-c2cnc(N)c(-c3nnc(-c4ccc(N5CCCC(N)C5)cc4)o3)n2)ccn1 (stereo not drawn) [Compound I-61] | < 1 | –
CC(C)(C(=O)NCCN)c1cc(-c2cnc(N)c(-c3cc(-c4ccccc4)no3)n2)ccn1 [Compound I-63] | < 1 | –
CC(C)(C#N)c1cc(-c2cnc(N)c(-c3nnc(-c4ccc(N5CCC[C@H](N)C5)cc4)o3)n2)ccn1 [Compound I-64] | – | +++ (Compounds with a Ki value >5 nM but ≦1 nM are marked with “+++.”)
CNCCNC(=O)C(C)(C)c1cc(-c2cnc(N)c(-c3cc(-c4ccccc4)no3)n2)ccn1 [Compound I-65] | 5 to 20 | –
CC(C)(C#N)c1cc(-c2cnc(N)c(-c3nnc(-c4cccc(CCN)c4)o3)n2)ccn1 [Compound I-66] | < 1 | –
COCC(CO)CNCc1ccc(-c2cc(-c3nc(-c4ccnc(C(C)(C)C#N)c4)cnc3N)on2)cc1 (stereo not drawn) [Compound I-67] | < 1 | –
CC(C)(C#N)c1cc(-c2cnc(N)c(-c3nnc(-c4ccc(N5CCCC5CN)cc4)o3)n2)ccn1 (stereo not drawn) [Compound I-68] | 5 to 20 | –
CC(C)(C#N)c1cc(-c2cnc(N)c(-c3nnc(-c4ccc(OCCN5CCCC5)cc4)o3)n2)ccn1 [Compound I-69] | < 1 | –

Compound | Ki [nM] | ATR Ki
CC(C)(C#N)c1cc(-c2cnc(N)c(-c3nnc(-c4ccc(F)cc4NCCN)o3)n2)ccn1 [Compound I-70] | < 1 | –
CC(C)(C#N)c1cc(-c2cnc(N)c(-c3cc(-c4ccc([C@H]5COCCN5)cc4)no3)n2)ccn1 [Compound I-71] | – | +++ (Compounds with a Ki value >5 nM but ≦1 nM are marked with “+++.”)
CN(CCN)c1ccc(-c2nnc(-c3nc(-c4ccnc(C(C)(C)C#N)c4)cnc3N)o2)cc1 [Compound I-72] | – | +++ (Compounds with a Ki value >5 nM but ≦1 nM are marked with “+++.”)
CC(C)(C#N)c1cc(-c2cnc(N)c(-c3nnc(-c4ccc(N5CCNCC5)cc4)o3)n2)ccn1 [Compound I-73] | < 1 | –
N#CC1(c2cc(-c3cnc(N)c(-c4cc(-c5ccccc5)no4)n3)ccn2)CN2CCC1CC2 (stereo not drawn) [Compound I-74] | < 1 | –
CC(C)(C#N)c1cc(-c2cnc(N)c(-c3nnc(-c4ccc(NCCN)cc4F)o3)n2)ccn1 [Compound I-75] | 5 to 20 | –
CC(C)(C#N)c1cc(-c2cnc(N)c(-c3nnc(-c4ccc(N5CCC(N)CC5)cc4)o3)n2)ccn1 [Compound I-76] | – | +++ (Compounds with a Ki value >5 nM but ≦1 nM are marked with “+++.”)
CC(C)(C#N)c1cc(-c2cnc(N)c(-c3nnc(-c4cccc(N5CC[C@@H](N)C5)c4)o3)n2)ccn1 [Compound I-77] | < 1 | –
CNCCN(C)c1ccc(-c2nnc(-c3nc(-c4ccnc(C(C)(C)C#N)c4)cnc3N)o2)cc1 [Compound I-78] | < 1 | –
CC(C)(C#N)c1cc(-c2cnc(N)c(-c3nnc(-c4ccc(C5CCCN5)cc4)o3)n2)ccn1 (stereo not drawn) [Compound I-79] | < 1 | –
CC(C)(C#N)c1cc(-c2cnc(N)c(-c3nnc(-c4ccc(C5CNC5)cc4)o3)n2)ccn1 [Compound I-80] | – | +++ (Compounds with a Ki value >5 nM but ≦1 nM are marked with “+++.”)
CC(C)(C#N)c1cc(-c2cnc(N)c(-c3nnc(-c4ccc5c(c4)CNC5)o3)n2)ccn1 [Compound I-81] | – | +++ (Compounds with a Ki value >5 nM but ≦1 nM are marked with “+++.”)
CC(C)(C#N)c1cc(-c2cnc(N)c(-c3nnc(-c4ccc(C5CNCCN5)cc4)o3)n2)ccn1 (stereo not drawn) [Compound I-82] | – | +++ (Compounds with a Ki value >5 nM but ≦1 nM are marked with “+++.”)
CC(C)(C#N)c1cc(-c2cnc(N)c(-c3nnc(-c4cccc(NC5CNC5)c4)o3)n2)ccn1 [Compound I-84] | – | +++ (Compounds with a Ki value >5 nM but ≦1 nM are marked with “+++.”)
CN(C)CCNC(=O)C(C)(C)c1cc(-c2cnc(N)c(-c3cc(-c4ccccc4)no3)n2)ccn1 [Compound I-85] | 5 to 20 | –
CN1CCN(c2ccc(-c3nnc(-c4nc(-c5ccnc(C(C)(C)C#N)c5)cnc4N)o3)cc2)CC1 [Compound I-86] | – | +++ (Compounds with a Ki value >5 nM but ≦1 nM are marked with “+++.”)
COC[C@@H](N)c1ccc(-c2nnc(-c3nc(-c4ccnc(C(C)(C)C#N)c4)cnc3N)o2)cc1 [Compound I-87] | < 1 | –
CC(C)(C#N)c1cc(-c2cnc(N)c(-c3nnc(-c4ccc(N5CC[C@H](N)C5)cc4)o3)n2)ccn1 [Compound I-88] | < 1 | –
CC(C)(C#N)c1cc(-c2cnc(N)c(-c3nnc(-c4cccc(C5CCCN5)c4)o3)n2)ccn1 (stereo not drawn) [Compound I-89] | 5 to 20 | –
CC(C)(C#N)c1cc(-c2cnc(N)c(-c3nnc(-c4cccc(N5CC[C@H](N)C5)c4)o3)n2)ccn1 [Compound I-90] | < 1 | –
CCCN(CCN(C)C)C(=O)c1cc(-c2cnc(N)c(-c3cc(-c4ccccc4)no3)n2)ccn1 [Compound I-91] | 5 to 20 | –
CC(C)(C#N)c1cc(-c2cnc(N)c(-c3cc(-c4ccc(CNC5CCCOC5)cc4)no3)n2)ccn1 (stereo not drawn) [Compound I-93] | < 1 | –
N#CC1(c2cc(-c3cnc(N)c(-c4nnc(-c5ccccc5)o4)n3)ccn2)CCNCC1 [Compound I-94] | 5 to 20 | –
CC(C)(C#N)c1cc(-c2cnc(N)c(-c3nnc(-c4cccc(C5CNC5)c4)o3)n2)ccn1 [Compound I-95] | – | +++ (Compounds with a Ki value >5 nM but ≦1 nM are marked with “+++.”)

From patent US8877759B2, “Aminopyrazines as ATR kinase inhibitors” (Vertex Pharnaceuticals Incorporated, priority 2011, dated 2014)
